Data published in patent publication US8916565B2, “Pyrrolopyrazine-spirocyclic piperidine amides as modulators of ion channels” (priority 2011, dated 2014).
pIC50: −log10 of the molar value.

Each molecule was assayed against human NaV subtype, like NaV 1.7 (Homo sapiens, UniProt Q15858) (assay: E-VIPR optical membrane potential assay with electrical stimulation). Conditions: active against one or more sodium channels; Table 3 does not name the assay or NaV subtype; read-out: Binned Activity Data (IC50).
human NaV subtype, like NaV 1.7, sequence (Q15858 whole entry): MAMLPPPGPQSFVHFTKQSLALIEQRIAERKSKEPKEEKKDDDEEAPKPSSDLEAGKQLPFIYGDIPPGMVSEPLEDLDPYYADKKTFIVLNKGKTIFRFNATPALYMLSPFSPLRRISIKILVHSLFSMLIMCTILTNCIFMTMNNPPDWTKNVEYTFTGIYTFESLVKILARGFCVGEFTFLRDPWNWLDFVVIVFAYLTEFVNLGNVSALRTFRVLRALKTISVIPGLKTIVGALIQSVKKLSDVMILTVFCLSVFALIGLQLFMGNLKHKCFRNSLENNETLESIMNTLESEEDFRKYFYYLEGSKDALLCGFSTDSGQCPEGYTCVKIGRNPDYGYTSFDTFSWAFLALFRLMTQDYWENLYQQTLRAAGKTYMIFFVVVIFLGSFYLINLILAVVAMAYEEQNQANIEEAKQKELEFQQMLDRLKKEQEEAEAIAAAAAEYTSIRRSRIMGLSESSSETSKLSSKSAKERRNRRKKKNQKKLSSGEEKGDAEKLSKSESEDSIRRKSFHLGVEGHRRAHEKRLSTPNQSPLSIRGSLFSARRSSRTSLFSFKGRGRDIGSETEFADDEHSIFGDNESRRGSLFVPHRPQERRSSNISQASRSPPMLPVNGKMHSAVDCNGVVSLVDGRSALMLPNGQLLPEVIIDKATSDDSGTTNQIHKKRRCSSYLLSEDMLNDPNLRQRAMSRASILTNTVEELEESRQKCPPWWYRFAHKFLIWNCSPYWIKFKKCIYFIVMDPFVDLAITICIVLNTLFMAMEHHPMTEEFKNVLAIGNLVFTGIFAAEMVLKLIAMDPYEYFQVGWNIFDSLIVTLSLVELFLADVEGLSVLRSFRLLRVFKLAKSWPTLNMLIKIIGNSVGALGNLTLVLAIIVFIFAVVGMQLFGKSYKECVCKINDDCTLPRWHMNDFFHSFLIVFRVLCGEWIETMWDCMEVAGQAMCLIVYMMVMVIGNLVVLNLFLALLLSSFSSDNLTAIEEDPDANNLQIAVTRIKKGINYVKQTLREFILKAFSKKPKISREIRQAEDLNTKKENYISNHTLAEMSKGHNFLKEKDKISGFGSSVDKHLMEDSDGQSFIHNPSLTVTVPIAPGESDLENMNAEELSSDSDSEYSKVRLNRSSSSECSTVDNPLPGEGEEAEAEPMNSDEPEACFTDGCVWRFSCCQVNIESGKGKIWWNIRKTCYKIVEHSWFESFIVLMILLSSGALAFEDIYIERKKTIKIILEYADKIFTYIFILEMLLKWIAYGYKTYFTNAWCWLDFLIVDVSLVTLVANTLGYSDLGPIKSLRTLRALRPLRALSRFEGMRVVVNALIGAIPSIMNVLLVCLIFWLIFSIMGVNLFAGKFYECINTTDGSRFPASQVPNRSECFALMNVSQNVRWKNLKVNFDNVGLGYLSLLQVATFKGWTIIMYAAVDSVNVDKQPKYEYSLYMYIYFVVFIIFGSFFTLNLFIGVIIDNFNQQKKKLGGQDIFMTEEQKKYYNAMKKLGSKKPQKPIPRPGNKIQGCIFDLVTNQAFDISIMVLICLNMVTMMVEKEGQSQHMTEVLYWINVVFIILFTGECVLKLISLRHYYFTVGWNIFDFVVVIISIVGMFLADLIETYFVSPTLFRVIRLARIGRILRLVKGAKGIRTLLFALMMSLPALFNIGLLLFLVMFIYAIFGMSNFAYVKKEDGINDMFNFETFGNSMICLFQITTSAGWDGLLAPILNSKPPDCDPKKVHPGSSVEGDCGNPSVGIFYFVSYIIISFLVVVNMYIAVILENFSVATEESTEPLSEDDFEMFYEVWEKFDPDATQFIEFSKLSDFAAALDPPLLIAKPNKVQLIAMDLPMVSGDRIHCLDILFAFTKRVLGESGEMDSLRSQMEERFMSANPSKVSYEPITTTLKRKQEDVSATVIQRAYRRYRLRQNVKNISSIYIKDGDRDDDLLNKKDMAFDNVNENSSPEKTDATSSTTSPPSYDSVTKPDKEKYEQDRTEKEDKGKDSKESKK
Type: cell-based
From the text: Assays for Detecting and Measuring NaV Inhibition Properties of Compound E-VIPR Optical Membrane Potential Assay Method with Electrical Stimulation
Sodium channels are voltage-dependent proteins that can be activated by inducing membrane voltage changes by applying electric fields. The electrical stimulation instrument and methods of use are described in Ion Channel Assay Methods PCT/US01/21652, herein incorporated by reference and are referred to as E-VIPR. The instrument comprises a microtiter plate handler, an optical system for exciting the coumarin dye while simultaneously recording the coumarin and oxonol emissions, a waveform generator, a current- or voltage-controlled amplifier, and a device for inserting electrodes in well. Under integrated computer control, this instrument passes user-programmed electrical stimulus protocols to cells within the wells of the microtiter plate.
24 hours before the assay on E-VIPR, HEK cells expressing human NaV subtype, like NaV 1.7, are seeded in 384-well poly-lysine coated plates at 15,000-20,000 cells per well. Other subtypes are performed in an analogous mode in a cell line expressing the NaV of interest. HEK cells are grown in media (exact composition is specific to each cell type and NaV subtype) supplemented with 10% FBS (Fetal Bovine Serum, qualified; GibcoBRL #16140-071) and 1% Pen-Strep (Penicillin-Streptomycin; GibcoBRL #15140-122). Cells are grown in vented cap flasks, in 90% humidity and 10% CO2, to 100% confluence. They are usually split by trypsinization 1:10 or 1:20, depending on scheduling needs, and grown for 2-3 days before the next split.
Bath 1 buffer. Glucose 10 mM (1.8 g/L), Magnesium Chloride (Anhydrous), 1 mM (0.095 g/L), Calcium Chloride, 2 mM (0.222 g/L), HEPES 10 mM (2.38 g/L), Potassium Chloride, 4.5 mM (0.335 g/L), Sodium Chloride 160 mM (9.35 g/L).
Hexyl Dye Solution: Bath 1 Buffer+0.5% β-cyclodextrin (make this prior to use, Sigma #C4767), 8 μM CC2-DMPE+2.5 μM DiSBAC6(3). To make the solution Add volume of 10% Pluronic F127 stock equal to volumes of CC2-DMPE+DiSBAC6(3). The order of preparation is first mix Pluronic and CC2-DMPE, then add DiSBAC6(3) while vortexing, then add Bath 1+β-Cyclodextrin.
1) Pre-spot compounds (in neat DMSO) into compound plates. Vehicle control (neat DMSO), the positive control (20 mM DMSO stock tetracaine, 125 μM final in assay) and test compounds are added to each well at 160× desired final concentration in neat DMSO. Final compound plate volume will be 80 μL (80-fold intermediate dilution from 1 μL DMSO spot; 160-fold final dilution after transfer to cell plate). Final DMSO concentration for all wells in assay is 0.625%.
2) Prepare Hexyl Dye Solution.
3) Prepare cell plates. On the day of the assay, medium is aspirated and cells are washed three times with 100 μL of Bath 1 Solution, maintaining 25 μL residual volume in each well.
4) Dispense 25 μL per well of Hexyl Dye Solution into cell plates. Incubate for 20-35 minutes at room temp or ambient conditions.
5) Dispense 80 μL per well of Bath 1 into compound plates. Acid Yellow-17 (1 mM) is added and Potassium Chloride can be altered from 4.5 to 20 mM depending on the NaV subtype and assay sensitivity.
6) Wash cell plates three times with 100 μL per well of Bath1, leaving 25 μL of residual volume. Then transfer 25 uL per well from Compound Plates to Cell Plates. Incubate for 20-35 minutes at room temp/ambient condition
7) Read Plate on E-VIPR. Use the current-controlled amplifier to deliver stimulation wave pulses for typically 9 seconds and a scan rate of 400 Hz. A pre-stimulus recording is performed for 0.5 seconds to obtain the un-stimulated intensities baseline. The stimulatory waveform is applied for 9 seconds followed by 0.5 seconds of post-stimulation recording to examine the relaxation to the resting state.
Molecule COc1ccc(C(=O)N2CCC3(CC2)c2ccc(C(=O)C(F)(F)F)n2CCN3C)cc1C(F)(F)F [Compound 459] has a pIC50 of no less than 5.70. Work on CN1CCn2c(C(F)(F)F)ccc2C12CCN(C(=O)c1ccc(C(C)(C)O)c(F)c1)CC2 [Compound 370] yielded a pIC50 of no less than 5.70. Molecule CC(C)Oc1ccc(C(=O)N2CCC3(CC2)c2cc(C(=O)C(F)(F)F)cn2C(C)(C)CN3C)cc1Cl [Compound 588] has a pIC50 of less than 5.30. In the case of CC(C)Cc1ccc(C(=O)N2CCC3(CC2)c2ccc(Cl)n2CCN3C)cc1 [Compound 73], the pIC50 was 5.30 to 5.70. CC(=O)c1ccc2n1CCN(C)C21CCN(C(=O)c2ccc(OC(C)C)c(C#N)c2)CC1 [Compound 285] gave a pIC50 of 5.30 to 5.70. Molecule Cc1cc(C(=O)N2CCC3(CC2)c2ccc(C(=O)c4ccccc4)n2CCN3C)ccc1O [Compound 632] has a pIC50 of no less than 5.70. Work on CC(=O)c1ccc2n1CCN(C)C21CCN(C(=O)c2ccc(C(C)C)cc2)CC1 [Compound 519] yielded a pIC50 of less than 5.30. Work on O=C(c1cccc2cccnc12)N1CCC2(CC1)NCCn1c(C(F)(F)F)ccc12 [Compound 452] yielded a pIC50 of 5.30 to 5.70. Work on COc1cc(C(=O)N2CCC3(CC2)c2ccc(C(=O)C(F)(F)F)n2CCN3C)ccc1OC(C)(C)C [Compound 90] yielded a pIC50 of no less than 5.70. In the case of CN1CCn2c(C(F)(F)F)cc(Cl)c2C12CCN(C(=O)c1ccc(C3(O)CCC3)cc1)CC2 [Compound 228], the pIC50 was no less than 5.70. CN1CCn2c(C(=O)C(C)(C)C)ccc2C12CCN(C(=O)c1ccc(O)c(C(F)(F)F)c1)CC2 [Compound 97] was tested, and the pIC50 was no less than 5.70. For CCCCc1ccc(C(=O)N2CCC3(CC2)c2ccc(C(=O)C(F)(F)F)n2CCN3C)cc1 [Compound 740], the pIC50 was no less than 5.70. COc1cc(C(=O)N2CCC3(CC2)c2c(F)cc(C(F)(F)F)n2CCN3C)ccc1OC(C)C [Compound 118] gave a pIC50 of no less than 5.70. In the case of CC(=O)c1ccc2n1CCN(C)C21CCN(C(=O)c2ccc(COc3ccccc3)cc2)CC1 [Compound 665], the pIC50 was no less than 5.70. Work on CCCCOc1ccc(C(=O)N2CCC3(CC2)NCCn2c(C(F)(F)F)ccc23)cc1OC [Compound 181] yielded a pIC50 of no less than 5.70. Work on CN1CCn2c(C(=O)C(C)(C)C)ccc2C12CCN(C(=O)c1ccc(C(C)(C)O)c(F)c1)CC2 [Compound 251] yielded a pIC50 of no less than 5.70. Work on COc1cc(C(=O)N2CCC3(CC2)c2ccc(C(=O)C(C)C)n2CCN3C)ccc1OC(C)C [Compound 144] yielded a pIC50 of no less than 5.70. With CCCN(CCC)S(=O)(=O)c1ccc(C(=O)N2CCC3(CC2)c2ccc(C(=O)C(F)(F)F)n2CCN3C)cc1 [Compound 671] the pIC50 was no less than 5.70. CC1CNC2(CCN(C(=O)c3ccc(COCCC(F)(F)F)cc3)CC2)c2ccc(C(=O)C(F)(F)F)n21 (stereo not shown) [Compound 505] gave a pIC50 of no less than 5.70. For CCNc1ncccc1C(=O)N1CCC2(CC1)c1ccc(C(F)(F)F)n1CCN2C [Compound 465], the pIC50 was less than 5.30. Cc1cc(C(=O)N2CCC3(CC2)c2ccc(C(F)(F)F)n2CCN3C2CCC2)ccc1OC(C)C [Compound 106] gave a pIC50 of no less than 5.70. Cc1cc(C(=O)N2CC[C@@]3(c4ccc(C(F)(F)F)n4CCN3C)[C@H](F)C2)ccc1OC(C)C [Compound 642] was tested, and the pIC50 was no less than 5.70. CN1CCn2c(C(=O)C(F)(F)F)ccc2C12CCN(C(=O)c1ccc(Oc3ccccc3)cc1)CC2 [Compound 402] showed a pIC50 of 5.30 to 5.70. CCOc1ccc(C(=O)N2CCC3(CC2)c2c(Cl)cc(C(F)(F)F)n2CCN3C)cc1C [Compound 420] gave a pIC50 of no less than 5.70. Molecule Cc1cc(C(=O)N2CCC3(CC2)c2ccc(C(=O)C(F)(F)F)n2CCN3C)ccc1-c1cncnc1 [Compound 191] has a pIC50 of no less than 5.70. With CCCOc1cc(C(=O)N2CCC3(CC2)c2ccc(C(C)=O)n2CCN3C)ccc1OC [Compound 606] the pIC50 was less than 5.30. Molecule COc1ccc(C(=O)N2CCC3(CC2)NCC(C)n2c(C(=O)C(F)(F)F)ccc23)cc1Cl (stereo not shown) [Compound 341] has a pIC50 of no less than 5.70. Work on Cc1cc(C(=O)N2CCC3(CC2)c2c(Cl)cc(C(F)(F)F)n2CCN3C)ncc1OC(C)C [Compound 657] yielded a pIC50 of no less than 5.70. For CN1CCn2c(Cl)ccc2C12CCN(C(=O)c1ccc(OCC(C)(C)C)cc1)CC2 [Compound 32], the pIC50 was no less than 5.70. CC[C@@H](C)Oc1ccc(C(=O)N2CCC3(CC2)NCCn2c(C(F)(F)F)ccc23)cc1OC [Compound 745] gave a pIC50 of no less than 5.70. Cc1cc(C(=O)N2CCC3(CC2)c2ccc(C(F)(F)F)n2CCN3C2CC2)ccc1OCC(C)(C)O [Compound 332] was tested, and the pIC50 was no less than 5.70. With CN1CC(C)(C)n2c(C(=O)C(F)(F)F)ccc2C12CCN(C(=O)c1ccc(C(C)(C)O)c(F)c1)CC2 [Compound 748] the pIC50 was less than 5.30. For CNC(=O)N1CCn2c(C(F)(F)F)ccc2C12CCN(C(=O)c1ccc(OC(C)C)c(C)c1)CC2 [Compound 533], the pIC50 was no less than 5.70. In the case of COc1cc(C(=O)N2CCC3(CC2)c2c(F)cc(C(F)(F)F)n2CCN3C)ccc1OCCO [Compound 540], the pIC50 was less than 5.30. For Cc1cc(C(=O)N2CCC3(CC2)N[C@@H](C)Cn2c(C(F)(F)F)ccc23)ccc1OC(C)C [Compound 495], the pIC50 was no less than 5.70. With COc1cc(C(=O)N2CCC3(CC2)NC(C)(C)Cn2c(C(=O)C(F)(F)F)ccc23)ccc1COCC(F)(F)F [Compound 467] the pIC50 was no less than 5.70. With CC(=O)c1ccc2n1CCN(C)C21CCN(C(=O)c2ccc(OCC(C)(C)C)cc2)CC1 [Compound 462] the pIC50 was no less than 5.70. With CN1CCn2c(ccc2C(F)(F)C(F)(F)F)C12CCN(C(=O)c1ccc(C(C)(C)O)c(F)c1)CC2 [Compound 253] the pIC50 was no less than 5.70. With CC(C)Oc1ccc(C(=O)N2CCC3(CC2)c2c(F)cc(C(F)(F)F)n2CCN3C)cc1C#N [Compound 134] the pIC50 was no less than 5.70. Cc1cc(C(=O)N2CCC3(CC2)c2ccc(C(F)(F)F)n2CCN3CCO)ccc1OC(C)C [Compound 156] showed a pIC50 of no less than 5.70. For O=C(c1ccc(Oc2ccccc2)cc1)N1CCC2(CC1)NCCn1c(C(F)(F)F)ccc12 [Compound 374], the pIC50 was less than 5.30. In the case of COc1ccc(C(=O)N2CCC3(CC2)c2ccc(C(=O)C(F)(F)F)n2C[C@@H](C)N3C)cc1Cl [Compound 252], the pIC50 was less than 5.30. For COCC#Cc1ccc(C(=O)N2CCC3(CC2)c2ccc(Cl)n2CCN3C)cc1F [Compound 36], the pIC50 was less than 5.30. Cc1cc(S(=O)(=O)C(C)C)ccc1C(=O)N1CCC2(CC1)c1ccc(C(F)(F)F)n1CCN2C [Compound 498] was tested, and the pIC50 was no less than 5.70. For CCNS(=O)(=O)c1ccc(C(=O)N2CCC3(CC2)c2ccc(C(F)(F)F)n2CCN3C)cc1C [Compound 343], the pIC50 was no less than 5.70. Work on CCOC(=O)N1CCn2c(C(F)(F)F)ccc2C12CCN(C(=O)c1ccc(OC(C)C)c(OC)c1)CC2 [Compound 741] yielded a pIC50 of no less than 5.70. Work on COc1c(C)cccc1C(=O)N1CCC2(CC1)c1ccc(C(=O)C(F)(F)F)n1C[C@H](C)N2C [Compound 675] yielded a pIC50 of no less than 5.70. COc1cc(C(=O)N2CCC3(CC2)c2ccc(C(F)(F)F)n2CCN3C)ccc1OC(C)(C)C [Compound 158] gave a pIC50 of no less than 5.70. Molecule Cc1cc(C(=O)N2CCC3(CC2)NCCn2c(C(F)(F)F)ccc23)ccc1S(=O)(=O)N(C)C [Compound 265] has a pIC50 of no less than 5.70. Cc1cc(C(=O)N2CCC3(CC2)c2ccc(C(=O)C(F)(F)F)n2C(C)CN3C)ccc1C(C)(C)O (stereo not shown) [Compound 311] gave a pIC50 of no less than 5.70. Molecule CC(C)Oc1ccc(C(=O)N2CCC3(CC2)c2ccc(C(=O)C(C)(C)C)n2CCN3C)c(F)c1 [Compound 91] has a pIC50 of no less than 5.70. In the case of CN1CCn2c(C(=O)C(F)(F)F)ccc2C12CCN(C(=O)c1ccc(F)c(O)c1)CC2 [Compound 720], the pIC50 was less than 5.30. With CN1CCn2c(C(F)(F)F)cc(F)c2C12CCN(C(=O)c1ccc(C3(O)CCC3)c(F)c1)CC2 [Compound 112] the pIC50 was no less than 5.70. Work on CC(=O)c1cc2n(c1)CC(C)(C)NC21CCN(C(=O)c2ccc(OC(C)C)c(C)c2)CC1 [Compound 454] yielded a pIC50 of less than 5.30. CN1CCn2c(C(F)(F)F)ccc2C12CCN(C(=O)c1cccnc1N1CCC(O)C1)CC2 (stereo not shown) [Compound 116] gave a pIC50 of less than 5.30.
